This is an account of results in US10975083B2, “Blood-brain barrier-penetrant dopamine-β-hydroxylase inhibitors” (BIAL—PORTELA & Cᵃ, S.A., priority 2016, dated 2021).

The term Papp A→B denotes how fast a substance crosses the layer from the apical side. A lower Papp A→B goes with slow passage.

One data set addresses T1, DβH (Homo sapiens, UniProt P09172).
T1 construct: reaction mixture (total volume 500 μl) contained: cellular homogenate (75 μg total protein); host or cells: SK-N-SH cell homogenate
T1 sequence (P09172 1-617): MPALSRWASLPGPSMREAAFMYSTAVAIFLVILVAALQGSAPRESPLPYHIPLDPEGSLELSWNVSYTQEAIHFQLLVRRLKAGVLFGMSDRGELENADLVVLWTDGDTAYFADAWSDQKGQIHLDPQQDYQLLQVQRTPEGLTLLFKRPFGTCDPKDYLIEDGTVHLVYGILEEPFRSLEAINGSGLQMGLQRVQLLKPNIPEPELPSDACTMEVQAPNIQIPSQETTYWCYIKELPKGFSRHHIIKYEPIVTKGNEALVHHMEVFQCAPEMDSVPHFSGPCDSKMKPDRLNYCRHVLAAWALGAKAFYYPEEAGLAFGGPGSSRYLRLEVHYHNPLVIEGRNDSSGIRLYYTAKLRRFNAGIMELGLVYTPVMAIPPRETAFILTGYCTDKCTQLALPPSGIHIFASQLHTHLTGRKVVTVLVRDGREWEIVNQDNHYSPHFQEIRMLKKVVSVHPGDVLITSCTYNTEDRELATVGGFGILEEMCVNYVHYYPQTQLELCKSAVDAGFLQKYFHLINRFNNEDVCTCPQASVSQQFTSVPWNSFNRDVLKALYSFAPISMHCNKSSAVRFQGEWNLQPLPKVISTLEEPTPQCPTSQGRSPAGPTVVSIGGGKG
The experiment in a line: DβH inhibition cell assay (SK-N-SH cellular homogenates, tyramine to octopamine). It counts as biochemical. The following applies: SK-N-SH cell homogenate; for remaining activity at 0.1 µM: inhibitor 0.1 μM, read-out: DβH activity in % of Ctrl (0.1 μM); for remaining activity at 1 µM: inhibitor 1 μM, read-out: DβH activity in % of Ctrl (1 μM); for remaining activity at 10 µM: inhibitor 10 μM, read-out: DβH activity in % of Ctrl (10 μM).

The next data set can be described thus: in vitro. The following applies: dog, MDCK, pH 7.4.

Turning to `NC(=S)N1CCC(c2ccccc2)C1` (stereo not drawn) [Example 1, 3-Phenylpyrrolidine-1-carbothioamide], at DβH, the remaining activity at 0.1 µM worked out at 75.6%, the remaining activity at 1 µM worked out at 42.4% and the remaining activity at 10 µM was found to be 4%. Further, in the data set “in vitro”, the Papp A→B at 30 min, 50 μM is 63.1 ×10⁻⁶ cm/s.
As to `NC(=S)N1CCC(c2cccs2)C1` (stereo not drawn) [Example 2, 3-(thiophen-2-yl)pyrrolidine-1-carbothioamide], on DβH, the remaining activity at 0.1 µM was 54.9% and the remaining activity at 10 µM worked out at 0%. Further, the Papp A→B at 30 min, 50 μM in “in vitro” was 126 ×10⁻⁶ cm/s.
Regarding `CC1(c2ccccc2)CCN(C(N)=S)C1` (stereo not drawn) [Example 7, 3-methyl-3-phenylpyrrolidine-1-carbothioamide], at DβH, the remaining activity at 0.1 µM stood at 84.8%, the remaining activity at 1 µM amounted to 37.7% and the remaining activity at 10 µM came to 7.5%. Moreover, in “in vitro”, the Papp A→B at 30 min, 50 μM is 100 ×10⁻⁶ cm/s.
For `NC(=S)N1CC2CC2(c2ccccc2)C1` (stereo not drawn) [Example 8, 1-phenyl-3-azabicyclo[3.1.0]hexane-3-carbothioamide], on DβH, the remaining activity at 1 µM came out at 14.5% and the remaining activity at 10 µM came out at 2.2%. This compound gave a Papp A→B at 30 min, 50 μM in the data set “in vitro” of 126 ×10⁻⁶ cm/s.
For `NC(=S)N1CCC(C2CCCCC2)C1` (stereo not drawn) [Example 9, 3-cyclohexylpyrrolidine-1-carbothioamide], in that order: 30.9%, 5.3% and 251 ×10⁻⁶ cm/s.
For `Cc1ccc(C2CCN(C(N)=S)C2)s1` (stereo not drawn) [Example 10, 3-(5-methylthiophen-2-yl)pyrrolidine-1-carbothioamide], at DβH, the remaining activity at 0.1 µM was 54.9%, the remaining activity at 1 µM was 2.7% and the remaining activity at 10 µM is 0%. The compound further gave a Papp A→B at 30 min, 50 μM in the data set “in vitro” of 126 ×10⁻⁶ cm/s.
For `NC(=S)N1CCC(c2cc(F)cc(F)c2)C1` (stereo not drawn) [Example 12, 3-(3,5-Difluorophenyl)pyrrolidine-1-carbothioamide], in that order: 63%, 11.5%, 0% and 79.4 ×10⁻⁶ cm/s.
Regarding `NC(=S)N1CCC(c2ccsc2)C1` (stereo not drawn) [Example 15, 3-(thiophen-3-yl)pyrrolidine-1-carbothioamide], on DβH, the remaining activity at 0.1 µM stood at 50.1% and the remaining activity at 1 µM stood at 9.3%. This compound also had a Papp A→B at 30 min, 50 μM in “in vitro” of 79.4 ×10⁻⁶ cm/s.
Regarding `NC(=S)N1CCC(c2ccco2)C1` (stereo not drawn) [Example 17, 3-(furan-2-yl)pyrrolidine-1-carbothioamide], the remaining activity at 1 µM on DβH was 56.8%. The same compound gave a Papp A→B at 30 min, 50 μM in “in vitro” of 79.4 ×10⁻⁶ cm/s.
In the case of `NC(=S)N1CCC(c2c(F)c(F)cc(F)c2F)C1` (stereo not drawn) [Example 23, 3-(2,3,5,6-Tetrafluorophenyl)pyrrolidine-1-carbothioamide], at DβH, the remaining activity at 0.1 µM is 5.9% and the remaining activity at 1 µM turned out to be 0%. Also, the Papp A→B at 30 min, 50 μM in “in vitro” was 100 ×10⁻⁶ cm/s.
For `NC(=S)N1CCC(c2cc(F)cc(F)c2F)C1` (stereo not drawn) [Example 24, 3-(2,3,5-trifluorophenyl)pyrrolidine-1-carbothioamide], in that order: 40.2%, 15.9% and 100 ×10⁻⁶ cm/s.
For `NC(=S)N1CC[C@@H](c2cc(F)cc(F)c2)C1` [Example 25, (S)-3-(3,5-difluorophenyl)pyrrolidine-1-carbothioamide], in that order: 46.1%, 6.7% and 100 ×10⁻⁶ cm/s.
In the case of `NC(=S)N1CC[C@H](c2cc(F)cc(F)c2)C1` [Example 26, (R)-3-(3,5-difluorophenyl)pyrrolidine-1-carbothioamide], the remaining activity at 1 µM at DβH came to 21.4%. For the same compound, the Papp A→B at 30 min, 50 μM in the data set “in vitro” is 100 ×10⁻⁶ cm/s.
For `NC(=S)N1C[C@H]2C[C@@]2(c2cccs2)C1` [Example 27, (1S,5S)-1-(thiophen-2-yl)-3-azabicyclo[3.1.0]hexane-3-carbothioamide], in that order: 20.8% and 126 ×10⁻⁶ cm/s.
In the case of `CNC(=S)N1C[C@@H]2C[C@]2(c2cc(F)cc(F)c2)C1` [Example 30, (1S,5R)-1-(3,5-Difluorophenyl)-N-methyl-3-azabicyclo[3.1.0]hexane-3-carbothioamide], at DβH, the remaining activity at 0.1 µM was determined as 3.3% and the remaining activity at 1 µM was found to be 2.8%. Moreover, the Papp A→B at 30 min, 50 μM in “in vitro” is 126 ×10⁻⁶ cm/s.
`S=c1[nH]cc2n1C[C@@]1(c3cc(Cl)cc(Cl)c3)C[C@@H]21` [Example 109, (5aS,6aR)-5a-(3,5-dichlorophenyl)-5,5a,6,6a-tetrahydrocyclopropa[3,4]pyrrolo[1,2-c]imidazole-3 (2H)-thione]: at DβH, the remaining activity at 0.1 µM stood at 67.5% and the remaining activity at 1 µM amounted to 17.2%.
The corresponding values for `Fc1ccc(Cl)cc1[C@@]12C[C@@H]1c1c[nH]c(=S)n1C2` [Example 110, (5aR,6aS)-5a-(5-chloro-2-fluorophenyl)-5,5a,6,6a-tetrahydrocyclopropa[3,4]pyrrolo[1,2-c]imidazole-3 (2H)-thione] are 73.8% and 15.9%.
For the compound `Fc1cc(F)c(F)c([C@H]2CC3CNC(=S)N3C2)c1F` (stereo partly drawn) [Example 111, (6R)-6-(2,3,5,6-tetrafluorophenyl)tetrahydro-1H-pyrrolo[1,2-c]imidazole-3(2H)-thione], at DβH, the remaining activity at 1 µM stood at 48.3%.
In the case of `Fc1ccc(F)c([C@@H]2Cc3c[nH]c(=S)n3C2)c1F` [Example 112, (S)-6-(2,3,6-trifluorophenyl)-2,5,6,7-tetrahydro-3H-pyrrolo[1,2-c]imidazole-3-thione], at DβH, the remaining activity at 0.1 µM came out at 70% and the remaining activity at 1 µM amounted to 10.1%.
For `Fc1ccc(F)c([C@H]2Cc3c[nH]c(=S)n3C2)c1F` [Example 113, (R)-6-(2,3,6-trifluorophenyl)-2,5,6,7-tetrahydro-3H-pyrrolo[1,2-c]imidazole-3-thione], in that order: 39.6% and 0%.
For `Cn1cc2n(c1=S)C[C@@H](c1c(F)c(F)cc(F)c1F)C2` [Example 114, (R)-2-methyl-6-(2,3,5,6-tetrafluorophenyl)-2,5,6,7-tetrahydro-3H-pyrrolo[1,2-c]imidazole-3-thione], in that order: 70.8% and 15.2%.
For `Fc1ccc(Br)c(F)c1[C@]12C[C@H]1c1c[nH]c(=S)n1C2` [Example 115, (5aS,6aR)-5a-(3-bromo-2,6-difluorophenyl)-5,5a,6,6a-tetrahydrocyclopropa[3,4]pyrrolo[1,2-c]imidazole-3 (2H)-thione], in that order: 0.5% and 0%.
As to `Cn1cc2n(c1=S)C[C@@]1(c3cc(Cl)ccc3F)C[C@@H]21` [Example 116, (5aS,6aR)-5a-(5-chloro-2-fluorophenyl)-2-methyl-5,5a,6,6a-tetrahydrocyclopropa[3,4]pyrrolo[1,2-c]imidazole-3 (2H)-thione], on DβH, the remaining activity at 0.1 µM was 24.8% and the remaining activity at 1 µM turned out to be 0%.
For `Fc1ccc(Br)c(F)c1[C@@H]1Cc2c[nH]c(=S)n2C1` [Example 117, (S)-6-(3-bromo-2,6-difluorophenyl)-2,5,6,7-tetrahydro-3H-pyrrolo[1,2-c]imidazole-3-thione], in that order: 6.4% and 0%.
In the case of `Fc1ccc(Br)c(F)c1[C@H]1Cc2c[nH]c(=S)n2C1` [Example 118, (R)-6-(3-bromo-2,6-difluorophenyl)-2,5,6,7-tetrahydro-3H-pyrrolo[1,2-c]imidazole-3-thione], at DβH, the remaining activity at 0.1 µM is 33.8% and the remaining activity at 1 µM came out at 0%.
In the case of `Fc1ccc(Br)c(F)c1[C@]12C[C@H]1c1n[nH]c(=S)n1C2` [Example 119, (5aS,6aR)-5a-(3-bromo-2,6-difluorophenyl)-5,5a,6,6a-tetrahydrocyclopropa[3,4]pyrrolo[2,1-c][1,2,4]triazole-3(2H)-thione], at DβH, the remaining activity at 0.1 µM was 49.1% and the remaining activity at 1 µM is 4.5%.
For `Fc1ccc(Br)cc1[C@]12C[C@H]1c1n[nH]c(=S)n1C2` [Example 120, (5aS,6aR)-5a-(5-bromo-2-fluorophenyl)-5,5a,6,6a-tetrahydrocyclopropa[3,4]pyrrolo[2,1-c][1,2,4]triazole-3(2H)-thione], in that order: 86.4% and 21.8%.
The corresponding values for `Cc1[nH]c(=S)n2c1[C@@H]1C[C@]1(c1c(F)ccc(Br)c1F)C2` [Example 121, (5aS,6aR)-5a-(3-bromo-2,6-difluorophenyl)-1-methyl-5,5a,6,6a-tetrahydrocyclopropa[3,4]pyrrolo[1,2-c]imidazole-3 (2H)-thione] are 5.2% and 0%.
In the data set “in vitro”, `CC(C)NCC(O)COc1cccc2ccccc12` (stereo not drawn) [Propranolol, reference compound] gave a Papp A→B at 30 min, 50 μM of 63.1 ×10⁻⁶ cm/s.
